Legend:
PKG-1 = assay: Whole heart PKG-1 activity; type: in vivo, mouse; details: chronic treatment
Method: PI3Kα activity was assessed by Elisa assay following immunoprecipitation of PI3K (Seize X IP Kit, Pierce) using a p85α monoclonal antibody (Cell Signaling), with activity measured by fluorescence polarization (Molecular Devices, Perkin-Elmer Victor 3 plate reader). Akt activity (IP with s473-pAkt Ab, GSK-3 fusion protein substrate) was performed using a commercial kit (Cell Signaling Technology, Beverly, Mass.). PKG-1 activity was assayed by calorimetric analysis, CycLex (Clinisciences, Montrouge, FR) from whole heart lysates.

[1] = test system: C57bl6 mice, isoproterenol-stimulated heart; assay: Acute isoproterenol-stimulated contractility in intact mice (pressure-volume relations); type: in vivo, mouse
Method: Isoproterenol (ISO: 20 ng/kg/minutes i.v.×5 min) with or without PDE5A inhibitor was given to anesthetized intact mice, and in vivo heart function assessed by pressure-volume relations at a fixed atrial pacing rate of 600-650 min^−1. Data were measured at baseline, with ISO, re-baseline, PDE5A-inhibition, and PDE5A inhibition+ISO. The ISO-only response was highly reproducible.

[2] = test system: healthy human volunteers, dobutamine-stimulated cardiac function; assay: Dobutamine stress test before and after oral study drug, randomized double-blind placebo-controlled; type: in vivo
From the text: Forty healthy volunteers were recruited from the general population in response to advertisements posted in the surrounding community. Subjects were screened by medical history, physical examination, and transthoracic echocardiogram. Individuals with heart disease, atherosclerosis, hypertension, diabetes mellitus, pulmonary hypertension, renal or hepatic disease, smoking, pregnancy, or under treatment with nitrates, adrenergic-blocking drugs, or medicines known to interfere with sildenafil pharmacokinetics were excluded. […] All subjects were instructed to fast for >6 hours prior to study. […] Intravenous dobutamine (5 μg/kg/min) was then administered for 5 minutes to achieve a stable response, and measurements repeated (D1). Dobutamine was discontinued, and 15 minutes provided to return to the baseline state. […] Data were again recorded for a second baseline (B2), and during a second dobutamine infusion (D2) using the identical protocol as for the first test. Systolic function was determined by cardiac-specific indexes that combined measurements of pressure, dimension, and flow. Arterial pressure was determined by an oscillometric arm cuff ([…] 2-dimensional echo-Doppler measurements by an Agilent Sonos 5500 (Philips, The Netherlands) employing a 3 MHz probe. All echo-Doppler measurements were digitally acquired to optical disc and analyzed offline by a single blinded investigator. Each measurement reflected the average of at least 3 separate beats. Aortic flow was equal to the velocity time-integral from pulse-wave Doppler in the left ventricular outflow tract multiplied by cross sectional […].^83 Stroke volume, peak, and mean flow were determined from this waveform. Cardiac output was the product of heart rate and stroke volume. Systemic vascular resistance was the ratio of mean arterial pressure (1⁄3 pulse pressure+diastolic blood pressure) to cardiac output. Cardiac contractility was assessed by several load-independent indexes. […] Load-independent secondary outcome contractility parameters were mean ventricular power index and the end-systolic pressure/volume ratio, an approximation for ventricular end systolic elastance. Other secondary outcome variables included routine measures of cardiac systolic and diastolic function. Ejection fraction was determined from cardiac end-diastolic and systolic volumes determined by Simpson's method using apical 4- and 2-chamber views. End-diastolic volume was equal to stroke volume (from Doppler) divided by ejection fraction, with end-systolic volume equal to the difference of the former and latter. Pulse-wave Doppler spectra of transmittal inflow and tissue Doppler imaging of the lateral mitral annular (E') velocities were used to assess diastolic function.^89 The ratio of E/E' was determined as a surrogate marker of left ventricular filling pressures as previously validated^90. Isovolumic relaxation time was measured by continuous wave Doppler as the time between aortic flow cessation and onset of mitral inflow. All statistical analysis was performed using Systat® software. Results are expressed as mean±standard deviation. […] The primary test was a test between group analysis of whether sildenafil (versus placebo) altered the disparity between the first and second dobutamine response, and determined by a three-way interaction term that included each grouping factor. […] Within group analysis was also performed using a 2-tailed Student's paired t-test to assess individual dobutamine responses ([…]2), and a 2-way ANOVA to test whether study drug altered this response within in each group. Categorical variables were compared using the Chi-squared test.

[3] = dobutamine-induced change after sildenafil
[4] = resting baseline after vs before 100 mg oral sildenafil
[5] = second versus initial dobutamine response

For `CCCc1nn(C)c2c(=O)[nH]c(-c3cc(S(=O)(=O)N4CCN(C)CC4)ccc3OCC)nc12` [sildenafil], the “whole heart PKG-1 activity” value (PKG-1; TAC hearts) was “more than doubled PKG-1 activity”, the “whole heart PKG-1 activity” value (PKG-1; sham controls) was “no effect on activity” and the “isoproterenol-stimulated contractility in intact heart” value ([1]; acute intravenous administration) was “marked suppression of this adrenergic stimulation response”. For the same compound, the “effect on the heart at rest (dP/dtmax)” value ([1]; given alone, no ISO) was “no effect on the heart at rest”, the “dobutamine-induced change in ventricular end-systolic elastance” value ([2]; after sildenafil 100 mg oral) was 0.84±0.9 mmHg/ml and the “dobutamine-induced increase in ejection fraction (absolute change)” value ([2]; after sildenafil 100 mg oral) was 4±5%. The “dobutamine-induced increase in heart rate” value ([2]; after sildenafil 100 mg oral) was “+14.5±4.7 bpm”, the “dobutamine-mediated drop in peripheral resistance” value ([2]; after sildenafil 100 mg oral) was “not modified” and the “diastolic changes induced by dobutamine” value ([2]; compared to placebo) was “did not significantly alter diastolic changes induced by dobutamine”. The “A velocity, D2 − B2” value [2, 3] was 11 ± 7 cm/s, the “E velocity, D2 − B2” value [2, 3] was 12 ± 11 cm/s and the “E′ velocity, D2 − B2” value [2, 3] was 1.5 ± 2.4 cm/s. The “IVRT, D2 − B2” value [2, 3] was −20 ± 13, the “A velocity, Δ(B2 − B1)” value [2, 4] was -3 ± 8 cm/s and the “Diastolic Blood Pressure, Δ(B2 − B1)” value [2, 4] was −6 ± 5 mmHg. The “E velocity, Δ(B2 − B1)” value [2, 4] was -4 ± 12 cm/s, the “Ejection Fraction, Δ(B2 − B1)” value [2, 4] was “+6 ± 2” and the “End Systolic Elastance, Δ(B2 − B1)” value [2, 4] was “+0.4 ± 0.2 mmHg/mL”. The “E′ velocity, Δ(B2 − B1)” value [2, 4] was “+0 ± 3 cm/sec”, the “Heart Rate, Δ(B2 − B1)” value [2, 4] was “+0 ± 3 min^−1” and the “IVRT, Δ(B2 − B1)” value [2, 4] was “+8 ± 12 msec”. The “Stroke Volume, Δ(B2 − B1)” value [2, 4] was “+5 ± 6 mL”, the “Systolic Blood Pressure, Δ(B2 − B1)” value [2, 4] was −6 ± 3 mmHg and the “Total Peripheral Resistance, Δ(B2 − B1)” value [2, 4] was −170 ± 60 dyne * s/cm^5. For the same compound, the “reduction of dobutamine-induced ejection fraction change” value [2, 5] was 66±64%, the “reduction of dobutamine-induced end-systolic elastance change” value [2, 5] was 56±63% and the “reduction of dobutamine-induced peak power change” value [2, 5] was 32±34%. For the same compound, the adverse events ([2]; single 100 mg oral dose, healthy volunteers) was “no adverse events”.

— patent US8299083B2, “PDE5 inhibitor compositions and methods for treating cardiac indications” (The Johns Hopkins University, priority 2004, dated 2012)
